Source: US11040981B2, “Pyrrolotriazine compounds and methods of inhibiting TAM kinases” (Syros Pharmaceuticals, Inc., priority 2017, dated 2021)

Columns and labels:
AXL = molecular target: T1, AXL (Homo sapiens, UniProt P30530); assay: TR-FRET kinase activity assay, AXL; format: biochemical; conditions: ATP at Km, 60 minutes
T1 sequence (P30530 26-894): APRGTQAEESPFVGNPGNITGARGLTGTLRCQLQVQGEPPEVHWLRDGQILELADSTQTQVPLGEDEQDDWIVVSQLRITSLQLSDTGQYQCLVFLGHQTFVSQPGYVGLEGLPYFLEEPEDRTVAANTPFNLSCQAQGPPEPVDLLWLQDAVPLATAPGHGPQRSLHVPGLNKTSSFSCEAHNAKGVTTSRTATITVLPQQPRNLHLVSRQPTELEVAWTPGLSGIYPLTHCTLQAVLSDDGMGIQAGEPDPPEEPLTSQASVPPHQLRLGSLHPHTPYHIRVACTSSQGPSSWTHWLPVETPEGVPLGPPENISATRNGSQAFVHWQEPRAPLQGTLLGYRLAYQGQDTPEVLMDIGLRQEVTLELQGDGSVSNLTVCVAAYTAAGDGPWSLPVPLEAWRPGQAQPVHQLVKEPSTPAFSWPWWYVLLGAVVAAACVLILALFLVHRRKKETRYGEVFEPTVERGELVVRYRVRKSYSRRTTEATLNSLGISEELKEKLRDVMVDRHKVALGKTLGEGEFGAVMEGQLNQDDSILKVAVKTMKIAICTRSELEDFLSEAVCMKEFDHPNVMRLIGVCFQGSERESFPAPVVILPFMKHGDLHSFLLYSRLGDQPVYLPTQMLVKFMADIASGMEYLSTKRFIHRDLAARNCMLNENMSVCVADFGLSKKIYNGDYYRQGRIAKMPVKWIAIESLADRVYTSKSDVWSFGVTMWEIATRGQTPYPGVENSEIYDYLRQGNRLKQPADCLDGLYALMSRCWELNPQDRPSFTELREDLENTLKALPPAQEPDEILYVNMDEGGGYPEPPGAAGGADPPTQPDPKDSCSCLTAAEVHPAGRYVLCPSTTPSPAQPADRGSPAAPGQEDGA
Summary of the method: (§1)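 Enzyme, fluorescent peptide substrate and compound were mixed, and the reaction was started with ATP at each kinase's Km, in 50 mM HEPES pH 7.5, 10 mM MgCl2, 1 mM EGTA, 0.01% Brij 35, 1 mM DTT at RT. After 60 minutes EDTA quench, Eu-labelled phospho-specific antibody was added for 30 minutes, and IC50 was derived from TR-FRET signal loss.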

MERTK = molecular target: T2, MERTK (Homo sapiens, UniProt Q12866); assay: TR-FRET kinase activity assay, MERTK; format: biochemical; conditions: for IC50: TR-FRET activity assay, ATP at Km, 60 minutes, read-out: Mer IC50; for FLT3/Mer ratio (FLT3 IC50/Mer IC50): ratio of Mer to FLT3: FLT3 IC50/Mer IC50
T2 sequence (Q12866 21-999): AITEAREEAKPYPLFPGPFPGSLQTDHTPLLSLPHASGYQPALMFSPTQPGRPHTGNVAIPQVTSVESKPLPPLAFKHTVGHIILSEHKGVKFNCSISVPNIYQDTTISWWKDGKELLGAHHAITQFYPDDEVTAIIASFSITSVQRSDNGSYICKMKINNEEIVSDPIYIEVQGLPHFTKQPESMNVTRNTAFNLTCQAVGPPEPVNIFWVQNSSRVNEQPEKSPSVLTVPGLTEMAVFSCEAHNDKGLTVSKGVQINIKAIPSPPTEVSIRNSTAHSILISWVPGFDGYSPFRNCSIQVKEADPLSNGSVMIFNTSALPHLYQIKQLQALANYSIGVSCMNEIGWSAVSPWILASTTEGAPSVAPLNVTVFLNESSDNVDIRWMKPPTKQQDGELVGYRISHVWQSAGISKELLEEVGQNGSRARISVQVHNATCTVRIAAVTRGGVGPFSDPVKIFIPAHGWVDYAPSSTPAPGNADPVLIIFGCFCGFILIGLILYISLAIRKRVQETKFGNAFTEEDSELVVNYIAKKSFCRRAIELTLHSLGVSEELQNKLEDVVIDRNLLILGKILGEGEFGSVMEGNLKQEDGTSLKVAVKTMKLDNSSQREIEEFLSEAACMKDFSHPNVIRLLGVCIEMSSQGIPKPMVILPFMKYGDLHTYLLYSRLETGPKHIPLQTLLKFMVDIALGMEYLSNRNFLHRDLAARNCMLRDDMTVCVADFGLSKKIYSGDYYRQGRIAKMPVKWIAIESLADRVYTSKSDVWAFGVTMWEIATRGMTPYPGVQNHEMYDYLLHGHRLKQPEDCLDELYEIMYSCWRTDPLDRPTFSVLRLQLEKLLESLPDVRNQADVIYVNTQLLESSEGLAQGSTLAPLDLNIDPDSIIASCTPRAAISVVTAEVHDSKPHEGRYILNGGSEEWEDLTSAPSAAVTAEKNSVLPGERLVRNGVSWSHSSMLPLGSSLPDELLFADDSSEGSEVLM
Summary of the method: as §1

IC50 (AXL) [nM] | IC50 (MERTK) [nM] | FLT3/Mer ratio (FLT3 IC50/Mer IC50) (MERTK) | Structure (SMILES)
100 to 1000 | ≤ 100 | +++ (“+++” represents a ratio of >100) | COC[C@H](C)Nc1ncc2c(-c3cnn(CC(=O)N(C)C)c3)cc([C@H]3CC[C@H](O)CC3)n2n1 [Compound 238]
≤ 100 | ≤ 100 | +++ (“+++” represents a ratio of >100) | COC[C@H](C)Nc1ncc2c(-c3cnn(CC(=O)N4CCCC4)c3)cc([C@H]3CC[C@H](O)CC3)n2n1 [Compound 239]
100 to 1000 | ≤ 100 | +++ (“+++” represents a ratio of >100) | COC[C@H](C)Nc1ncc2c(-c3cnn(CC(=O)N4CCN(C)CC4)c3)cc([C@H]3CC[C@H](O)CC3)n2n1 [Compound 240]
100 to 1000 | ≤ 100 | +++ (“+++” represents a ratio of >100) | CNC(=O)Cn1cc(-c2cc([C@H]3CC[C@H](O)CC3)n3nc(N[C@@H](C)COC)ncc23)cn1 [Compound 241]
≤ 100 | ≤ 100 | +++ (“+++” represents a ratio of >100) | COC[C@H](C)Nc1ncc2c(-c3cnn([C@@H]4CCOC4)c3)cc([C@H]3CC[C@H](O)CC3)n2n1 [Compound 242]
≤ 100 | ≤ 100 | +++ (“+++” represents a ratio of >100) | COC[C@H](C)Nc1ncc2c(-c3cnn([C@H]4CCOC4)c3)cc([C@H]3CC[C@H](O)CC3)n2n1 [Compound 243]
100 to 1000 | ≤ 100 | +++ (“+++” represents a ratio of >100) | CNC(=O)c1cncc(-c2cc([C@H]3CC[C@H](O)CC3)n3nc(N[C@@H](C)COC)ncc23)c1 [Compound 245]
≤ 100 | ≤ 100 | +++ (“+++” represents a ratio of >100) | COC[C@H](C)Nc1ncc2c(-c3ccc(C)nc3)cc([C@H]3CC[C@H](O)CC3)n2n1 [Compound 246]
100 to 1000 | ≤ 100 | +++ (“+++” represents a ratio of >100) | COC[C@H](C)Nc1ncc2c(-c3cncc(C(N)=O)c3)cc([C@H]3CC[C@H](O)CC3)n2n1 [Compound 247]
100 to 1000 | ≤ 100 | +++ (“+++” represents a ratio of >100) | COC[C@H](C)Nc1ncc2c(-c3cn(C[Si](C)(C)C)nn3)cc([C@H]3CC[C@H](O)CC3)n2n1 [Compound 248]
≤ 100 | ≤ 100 | +++ (“+++” represents a ratio of >100) | COC[C@H](C)Nc1ncc2c(-c3ccc4c(c3)NC(=O)C4)cc([C@H]3CC[C@H](O)CC3)n2n1 [Compound 249]
100 to 1000 | ≤ 100 | +++ (“+++” represents a ratio of >100) | COC[C@H](C)Nc1ncc2c(-c3cn(C)nn3)cc([C@H]3CC[C@H](O)CC3)n2n1 [Compound 250, (trans)-4-(2-(((S)-1-methoxypropan-2-yl)amino)-5-(1-methyl-1H-1,2,3-triazol-4-yl)pyrrolo[2,1-f][1,2,4]triazin-7-yl)cyclohexanol]
100 to 1000 | ≤ 100 | +++ (“+++” represents a ratio of >100) | COC[C@H](C)Nc1ncc2c(-c3ccc4c(c3)CC(=O)N4)cc([C@H]3CC[C@H](O)CC3)n2n1 [Compound 251]
100 to 1000 | ≤ 100 | +++ (“+++” represents a ratio of >100) | COC[C@H](C)Nc1ncc2c(-c3ccc4c(c3)CNC4=O)cc([C@H]3CC[C@H](O)CC3)n2n1 [Compound 252]
1000 to 10000 | ≤ 100 | +++ (“+++” represents a ratio of >100) | COCC(C)Nc1ncc2c(-c3cccc(C)n3)cc(C3CCC(O)CC3)n2n1 (stereo not drawn) [Compound 253]
100 to 1000 | ≤ 100 | +++ (“+++” represents a ratio of >100) | COC[C@H](C)Nc1ncc2c(-c3ccc(N4CCOCC4)nc3)cc([C@H]3CC[C@H](O)CC3)n2n1 [Compound 254]
≤ 100 | ≤ 100 | +++ (“+++” represents a ratio of >100) | COC[C@H](C)Nc1ncc2c(-c3ccnc(N4CCN(C)CC4)c3)cc([C@H]3CC[C@H](O)CC3)n2n1 [Compound 256]
1000 to 10000 | ≤ 100 | +++ (“+++” represents a ratio of >100) | COC[C@H](C)Nc1ncc2c(-c3cc(C)ccn3)cc([C@H]3CC[C@H](O)CC3)n2n1 [Compound 257]
≤ 100 | ≤ 100 | +++ (“+++” represents a ratio of >100) | COC[C@H](C)Nc1ncc2c(-c3ccnc(N4CCOCC4)c3)cc([C@H]3CC[C@H](O)CC3)n2n1 [Compound 259]
100 to 1000 | ≤ 100 | +++ (“+++” represents a ratio of >100) | COC[C@H](C)Nc1ncc2c(-c3cn(C)nc3C)cc([C@H]3CC[C@H](O)CC3)n2n1 [Compound 260]
100 to 1000 | ≤ 100 | +++ (“+++” represents a ratio of >100) | COC[C@H](C)Nc1ncc2c(-c3cnc(C)o3)cc([C@H]3CC[C@H](O)CC3)n2n1 [Compound 261]
≤ 100 | ≤ 100 | +++ (“+++” represents a ratio of >100) | COCCn1cc(-c2cc([C@H]3CC[C@H](O)CC3)n3nc(N[C@@H](C)CC(F)(F)F)ncc23)cn1 [Compound 262]
≤ 100 | ≤ 100 | +++ (“+++” represents a ratio of >100) | COC[C@H](C)Nc1ncc2c(-c3cnn(CC(C)(C)O)c3)cc([C@H]3CC[C@H](O)CC3)n2n1 [Compound 264]
≤ 100 | ≤ 100 | +++ (“+++” represents a ratio of >100) | COC[C@H](C)Nc1ncc2c(-c3cnn(C(C)(C)CO)c3)cc([C@H]3CC[C@H](O)CC3)n2n1 [Compound 265]

Structure (SMILES) | IC50 (AXL) [nM] | IC50 (MERTK) [nM] | FLT3/Mer ratio (FLT3 IC50/Mer IC50) (MERTK)
CC(CCF)Nc1ncc2c(-c3ccc(CN4CCOCC4)cc3)cc(C3CCC(O)CC3)n2n1 (stereo not drawn) [Compound 244] | ≤ 100 | ≤ 100 | ++ (“++” represents a ratio of between 10 and 100)
CC(CCOC(F)F)Nc1ncc2c(-c3ccc(CN4CCOCC4)cc3)cc(C3CCC(O)CC3)n2n1 (stereo not drawn) [Compound 255] | ≤ 100 | ≤ 100 | ++ (“++” represents a ratio of between 10 and 100)
COC[C@H](C)Nc1ncc2c(-c3ccc(C)cn3)cc([C@H]3CC[C@H](O)CC3)n2n1 [Compound 258] | 100 to 1000 | ≤ 100 | ++ (“++” represents a ratio of between 10 and 100)
CNC(=O)c1ccc(-c2cc([C@H]3CC[C@H](O)CC3)n3nc(N[C@@H](C)CC(F)(F)F)ncc23)cn1 [Compound 263] | ≤ 100 | ≤ 100 | ++ (“++” represents a ratio of between 10 and 100)
